In test [1] the test system is Wnt-responsive promoter (Sp5-Luc reporter) in SW480 colon carcinoma cells. Description: Sp5-Luc reporter gene screening assay for Wnt activity in SW480 cells. Conditions: 36 to 48 hours, luminescence. Format: cell-based, human. In short, it runs like this: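 SW480 cells stably carrying a luciferase reporter under an Sp5 promoter with eight TCF/LEF sites, plated at 4,000 cells/well in DMEM with 1% FBS and incubated 36 to 48 hours at 37° C. Luminescence normalized to DMSO-only cells; EC50 fitted by four-parameter nonlinear regression.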
In general terms: In a reporter assay the amount or activity of a reporter protein is the signal.

Another test has as its target recombinant GSK3β kinase (Homo sapiens (Human), UniProt P49841). Nature of the test: GSK3β kinase assay (Ser/Thr 09 peptide Z-lyte, FRET). The following applies: GSK3β kinase, 46 μM ATP, one hour; method calls values IC50. The class given is biochemical.
Test [2] has as its system Tau phosphorylation at Ser396 (pSer396). Nature of the test: Tau phosphorylation (pSer396) assay in SH-SY5Y cells. Format: cell-based, human.
Procedure: Two days before treatment, cells were seeded onto 96 well plates at 5×10^4 cells/well.
The above synthesized compounds were screened using the cell assay procedure to assess decrease Tau phosphorylation at Ser396 (pSer396) described below.
Cells were lysed with RIPA buffer complemented with phosphatase and protease inhibitors then lysates were spun down at 12,000 g for 10 min to remove any cellular debris.
Test [3] relates to SW480 colon carcinoma cells. Description: Cell viability assay (CellTiter-Glo) in SW480 cells. The class given is cell-based, human. The following applies: four days.
Test [4] relates to primary human fibroblasts derived from IPF patients (LL29 cells), α-smooth muscle actin. Description: Inhibition of fibrotic process: αSMA in TGF-β1 treated LL29 fibroblasts. The class given is cell-based. Conditions: for pEC50: LL29 cells, TGF-β1 20 ng/mL, 4 days, % cells positive for αSMA. The essentials:
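LL29 fibroblasts from IPF patients, in F12 medium with 1% FBS, treated with TGF-β1 plus compound; TGF-β1 with DMSO as positive control, DMSO alone as negative control. After 4 days' incubation, SYTOX green nucleic acid stain added at 1 μM final, 30 min at room temperature.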

The test system of a further test is IL-6. Description: IL-6 inhibition in LPS-stimulated human peripheral blood mononuclear cells (HTRF). The class given is cell-based. Conditions: for pEC50: huPBMCs, LPS 50 ng/mL, 22 hours, IL-6 HTRF; for inhibition at 10 µM: read-out: percent inhibition at 10 μM. The essentials:
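Fresh human PBMCs at 1×10e6 cells/mL in 1% FBS-RPMI were pretreated with compound for 2 h, then stimulated with 50 ng/mL E. coli 0111:B4 LPS for a further 22 h at 37 °C. IL-6 was measured by HTRF (665/620 nm ratio). Values were normalized to DMSO and fitted 4-parameter for EC50.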
For orientation: In TR-FRET formats the signal depends on donor and acceptor labels being close together.

The target in test [5] is recombinant DYRK1A kinase (Homo sapiens (Human), UniProt Q13627). Description: DYRK1A kinase assay (Ser/Thr 18 peptide Z-lyte, FRET). The following applies: DYRK1A kinase, 30 μM ATP, one hour; method calls values IC50.
Procedure: Each compound was dissolved in DMSO as a 10 mM stock and used to prepare compound source plates.
This is a non-radioactive assay using fluorescence resonance energy transfer (FRET) between coumarin and fluorescein to detect kinase activity which is represented as a ratio of coumarin emission/fluorescein emission.
The mixture was allowed to incubate with the representative compounds for one hour at room temperature. All reactions were performed in duplicate. Unphosphorylated (“0% Control”) and phosphorylated (“100% control”) forms of Ser/Thr 18 served as control reactions. Additionally, an 11-point dose-response curve of Staurosporine (1 uM top) was run to serve as a positive compound control.
After incubation, Development Reagent A was diluted in Development Buffer then added to the reaction and allowed to further incubate for one hour at room temperature.
Dose-response curves were generated and inhibitory concentration (IC50) values were calculated using non-linear regression curve fit in the Dotmatics' Studies Software (Bishops Stortford, UK).
[6] abbreviates: Homo sapiens, SH-SY5Y cells, overnight (16-18 h), pSer396 Tau ELISA, read-out: EC50.

pEC50: −log10 of the molar value. Read-outs that look alike come from different tables or passages of the source.

Chain of recombinant GSK3β kinase (P49841 whole entry): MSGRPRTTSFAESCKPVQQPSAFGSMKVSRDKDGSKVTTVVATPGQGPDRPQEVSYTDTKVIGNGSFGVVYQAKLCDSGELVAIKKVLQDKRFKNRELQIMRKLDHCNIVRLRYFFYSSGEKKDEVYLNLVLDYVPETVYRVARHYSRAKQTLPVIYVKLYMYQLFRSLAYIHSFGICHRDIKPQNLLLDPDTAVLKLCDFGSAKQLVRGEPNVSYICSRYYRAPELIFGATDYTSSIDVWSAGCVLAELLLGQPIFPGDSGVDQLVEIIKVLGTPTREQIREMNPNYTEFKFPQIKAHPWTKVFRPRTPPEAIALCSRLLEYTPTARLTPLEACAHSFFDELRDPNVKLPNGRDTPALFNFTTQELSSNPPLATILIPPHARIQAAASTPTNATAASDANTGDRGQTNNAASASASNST

One may read the pEC50 as the EC50 on a negative log10 scale, so that one unit is a factor of ten. Consider `Cn1cc(-c2ccc3cnc(NC(=O)c4cnn(C5CCNCC5)c4)cc3c2)cn1` [Compound 2, N-(6-(1-methyl-1H-pyrazol-4-yl)isoquinolin-3-yl)-1-(piperidin-4-yl)-1H-pyrazole-4-carboxamide], for which the negative logarithm of the EC50 (pEC50) in test [1] (Homo sapiens) is 7.57; on recombinant GSK3β kinase, 5.98; in test [2] (setting [6]), 7.00; in test [3] (Homo sapiens, 96 h), 7.42; in test [4] (Homo sapiens, Fibroblast, 96 h) it was 7.03; in the test with IL-6 (Homo sapiens, PBMC), 6.94. Further, the pEC50 in test [5] was 8.70.

As to `CC(C)N1CCC(n2cc(C(=O)Nc3cc4cc(-c5cnn(C)c5)ccc4cn3)cn2)CC1` [Compound 8, 1-(1-isopropylpiperidin-4-yl)-N-(6-(1-methyl-1H-pyrazol-4-yl)isoquinolin-3-yl)-1H-pyrazole-4-carboxamide], the pEC50 is 7.96 in test [1] (Homo sapiens); 6.11 on recombinant GSK3β kinase; 7.57 in test [2] (setting [6]); 7.23 in test [3] (Homo sapiens, 96 h); 7.14 in test [4] (Homo sapiens, Fibroblast, 96 h); 6.30 with IL-6 (Homo sapiens, PBMC). The pEC50 in test [5] was 9.00.

As to `CC(C)OC(=O)N1CCC(n2cc(C(=O)Nc3cc4cc(-c5cnn(C)c5)ccc4cn3)cn2)CC1` [Compound 10, isopropyl 4-(4-((6-(1-methyl-1H-pyrazol-4-yl)isoquinolin-3-yl)carbamoyl)-1H-pyrazol-1-yl)piperidine-1-carboxylate], the pEC50 in test [1] (Homo sapiens) was 7.26; at recombinant GSK3β kinase, 5.38; in test [2] (setting [6]) it was 7.19; in test [3] (Homo sapiens, 96 h) it was 6.98; in test [4] (Homo sapiens, Fibroblast, 96 h), 7.21; in the test on IL-6 (Homo sapiens, PBMC), 6.56. The pEC50 in test [5] was 8.52.

As usually defined, the inhibition is the relative decrease from the control value, in per cent. On to `Cn1cc(-c2ccc3cnc(NC(=O)c4csc(C5CCN(CCF)CC5)n4)cc3c2)cn1` [Compound 27, 2-(1-(2-Fluoroethyl)piperidin-4-yl)-N-(6-(1-methyl-1H-pyrazol-4-yl)isoquinolin-3-yl)thiazole-4-carboxamide], for which the pEC50 in test [1] (Homo sapiens) was 6.52; at recombinant GSK3β kinase it was 5.44; in test [2] (setting [6]) it was less than 5.00; in test [3] (Homo sapiens, 96 h), 5.44; in test [4] (Homo sapiens, Fibroblast, 96 h), 5.60; in the test with IL-6 (Homo sapiens, PBMC) it was less than 5.00. Further, the pEC50 in test [5] is 7.85. Moreover, the inhibition at 10 µM with IL-6 (Homo sapiens, PBMC) is 34.5%.

On to `Cc1ncc(C(=O)Nc2cc3cc(-c4cnn(C5CCN(C)CC5)c4)ccc3cn2)s1` [Compound 28, 2-Methyl-N-(6-(1-(1-methylpiperidin-4-yl)-1H-pyrazol-4-yl)isoquinolin-3-yl)thiazole-5-carboxamide], for which the pEC50 in test [1] (Homo sapiens) is 5.93; on recombinant GSK3β kinase, less than 5.00; in test [2] (setting [6]), 5.68; in test [3] (Homo sapiens, 96 h), 6.47; in test [4] (Homo sapiens, Fibroblast, 96 h), 6.42; in the test with IL-6 (Homo sapiens, PBMC) it was 5.00. In addition, the pEC50 in test [5] is 7.62.

As to `Cc1ncc(-c2ccc3cnc(NC(=O)c4cnn(C5CCN(C)CC5)c4)cc3c2)o1` [Compound 63, N-(6-(2-Methyloxazol-5-yl)isoquinolin-3-yl)-1-(1-methylpiperidin-4-yl)-1H-pyrazole-4-carboxamide], the pEC50 is 7.47 in test [1] (Homo sapiens); 6.21 on recombinant GSK3β kinase; 7.24 in test [3] (Homo sapiens, 96 h); 6.95 in test [4] (Homo sapiens, Fibroblast, 96 h); 6.53 in the test on IL-6 (Homo sapiens, PBMC); 8.70 in test [5].

As to `Cc1nnc(-c2ccc3cnc(NC(=O)c4cnn(C5CCN(C)CC5)c4)cc3c2)s1` [Compound 65, N-(6-(5-Methyl-1,3,4-thiadiazol-2-yl)isoquinolin-3-yl)-1-(1-methylpiperidin-4-yl)-1H-pyrazole-4-carboxamide], the pEC50 in test [1] (Homo sapiens) was 7.52; on recombinant GSK3β kinase, 6.20; in test [3] (Homo sapiens, 96 h) it was 7.32; in test [4] (Homo sapiens, Fibroblast, 96 h), 6.66; in the test on IL-6 (Homo sapiens, PBMC) it was 6.44; in test [5] it was 8.22.

As for `Cc1nnc(-c2ccc3cnc(NC(=O)c4cnn(C5CCN(C(C)C)CC5)c4)cc3c2)s1` [Compound 66, 1-(1-Isopropylpiperidin-4-yl)-N-(6-(5-methyl-1,3,4-thiadiazol-2-yl)isoquinolin-3-yl)-1H-pyrazole-4-carboxamide], the negative-log EC50 (pEC50) is 7.47 in test [1] (Homo sapiens); 6.41 on recombinant GSK3β kinase; 7.34 in test [3] (Homo sapiens, 96 h); 6.77 in test [4] (Homo sapiens, Fibroblast, 96 h); 6.05 in the test on IL-6 (Homo sapiens, PBMC); 8.40 in test [5].

On to `Cc1nnc(-c2ccc3cnc(NC(=O)c4cn(C5CCN(C)CC5)nn4)cc3c2)s1` [Compound 67, N-(6-(5-Methyl-1,3,4-thiadiazol-2-yl)isoquinolin-3-yl)-1-(1-methylpiperidin-4-yl)-1H-1,2,3-triazole-4-carboxamide], for which the pEC50 in test [1] (Homo sapiens) is 6.33; at recombinant GSK3β kinase, 5.63; in test [3] (Homo sapiens, 96 h) it was 6.05; in test [4] (Homo sapiens, Fibroblast, 96 h) it was 5.36; in the test on IL-6 (Homo sapiens, PBMC), less than 5.00; in test [5], 7.51. In the test on IL-6 (Homo sapiens, PBMC), the inhibition at 10 µM is 8.3%.

Take `Cc1nnc(-c2ccc3cnc(NC(=O)c4coc(C5CCNCC5)n4)cc3c2)s1` [Compound 68, N-(6-(5-Methyl-1,3,4-thiadiazol-2-yl)isoquinolin-3-yl)-2-(piperidin-4-yl) oxazole-4-carboxamide]: the pEC50 in test [1] (Homo sapiens) is 6.91; at recombinant GSK3β kinase it was 6.18; in test [3] (Homo sapiens, 96 h), 6.38; in test [4] (Homo sapiens, Fibroblast, 96 h), 5.59; in the test on IL-6 (Homo sapiens, PBMC) it was 5.58; in test [5] it was 7.13.

For the molecule `Cc1nnc(-c2ccc3cnc(NC(=O)c4coc(C5CCN(C)CC5)n4)cc3c2)s1` [Compound 69, N-(6-(5-Methyl-1,3,4-thiadiazol-2-yl)isoquinolin-3-yl)-2-(1-methylpiperidin-4-yl)oxazole-4-carboxamide], the pEC50 in test [1] (Homo sapiens) was 5.67; at recombinant GSK3β kinase, 5.17; in test [3] (Homo sapiens, 96 h), 5.89; in test [4] (Homo sapiens, Fibroblast, 96 h) it was less than 5.00; with IL-6 (Homo sapiens, PBMC), less than 5.00; in test [5] it was 6.28. The inhibition at 10 µM amounted to 43.9% in test [4] (Homo sapiens, Fibroblast, read-out: percent inhibition at 10 μM) and 2.3% with IL-6 (Homo sapiens, PBMC).

In the case of `CC(C)n1cc(C(=O)Nc2cc3cc(-c4cncn4C(C)C)ccc3cn2)cn1` [Compound 70, 1-Isopropyl-N-(6-(1-isopropyl-1H-imidazol-5-yl)isoquinolin-3-yl)-1H-pyrazole-4-carboxamide], the pEC50 was 6.94 in test [1] (Homo sapiens); 5.15 at recombinant GSK3β kinase; 6.88 in test [3] (Homo sapiens, 96 h); 6.60 in test [4] (Homo sapiens, Fibroblast, 96 h); 5.80 in the test with IL-6 (Homo sapiens, PBMC); 8.05 in test [5].

For `COc1ccc2c(c1)[nH]c1c(C)nccc12` [Harmine, reference compound], the pEC50 in test [2] (Homo sapiens, SH-SY5Y) is less than 5.00.

As for `CCN1/C(=C/C(C)=O)Sc2ccc(O)cc21` [Indy, reference compound], the pEC50 in test [2] (SH-SY5Y cells, overnight (16-18 h), pSer396 Tau ELISA, read-out: EC50) is less than 5.00.

With “N-(6-(1-(Methyl-d3)-1H-pyrazol-4-yl)isoquinolin-3-yl)-2-(1-methylpiperidin-4-yl)oxazole-4-carboxamide [Compound 17]”, the pEC50 was 6.95 in test [1]; 5.53 on recombinant GSK3β kinase; 6.89 in test [3]; 6.76 in test [4]; 5.21 in the test on IL-6; 7.80 in test [5].

In the case of “N-(6-(1-Methyl-1H-pyrazol-4-yl)isoquinolin-3-yl)-2-(4-methylpiperazin-1-yl)oxazole-5-carboxamide [Compound 15]”, the pEC50 was 6.99 in test [1]; 5.02 at recombinant GSK3β kinase; 6.84 in test [3]; 6.55 in test [4]; 6.12 in the test with IL-6; 8.10 in test [5].

The values above are taken from patent publication US10744128B2, “6-(5-membered heteroaryl)isoquinolin-3-yl-(5-membered heteroaryl) carboxamides and preparation and use thereof” (Samumed, LLC, priority 2017, dated 2020).
